Measurements as given in US20130184318A1, “[…] […]” (THE REGENTS OF THE UNIVERSITY OF CALIFORNIA, priority 2010, published 2013).

Legend:
Type in all cases: cell-based, human
[1] = system: HTM cells; test: AFM measurement of Young's modulus (compliance) of HTM cells before and after Lat-B exposure; conditions: for HTM Cell Modulus on Substrates, Glass: glass (GPa range), pre-dose 2.7 ± 0.7; for HTM Cell Modulus on Substrates, Homeomimetic: homeomimetic gel E = 4.0 ± 1.5 kPa, pre-dose 1.6 ± 0.2; for HTM Cell Modulus on Substrates, Pathomimetic: pathomimetic gel E = 92 ± 10 kPa, pre-dose 1.8 ± 0.5
Method: (§1) Primary HTM cells were obtained from corneal buttons from donors with no ocular diseases and that were not suitable for transplant. […] Cells were plated onto glass surfaces at 100,000 cells per surface. A similar number of cells were plated onto the biomimetic PA hydrogels. The cells were allowed to attach to the surfaces for 12 hours prior to the start of the experiment. Fluorescent images of the actin cytoskeleton were obtained from fixed cells stained with phalloidin-AlexaFluor 568 (Invitrogen, Carlsbad, Calif.). Fluorescent images of the cell membrane were obtained from live cells stained with wheat germ agglutinin-AlexaFluor 488 (Invitrogen).
The PA gels were then adhered to UV-cleaned, glass-bottom petri dishes (World Precision Instruments, Sarasota, Fla.), incubated in HTM medium for 12 hours, and then coated with a mixture of fibronectin and collagen (FNC coating mix, Athena Environmental Sciences, Baltimore, Md.) for 10 minutes prior to cell seeding. HTM cells were added to these dishes in media and were allowed to incubate overnight to ensure proper cell adhesion to the FNC-coated PA gels. Immediately prior to AFM measurements, the HTM media was rinsed away with PBS. This was done because fetal bovine serum is known to inactivate Lat-B (Spector, et al., (1989) Cell Motil Cytoskeleton 13:127-144).
The contact mechanics of the PA substrates and the HTM cells were studied with two MFP-3D atomic force microscopes (Asylum Research, Santa Barbara, Calif.) interfaced with either an Olympus (FluoView 1000 laser scanning confocal microscope, Olympus America, Center Valley, Pa.) or Zeiss (Axio Observer A1, Carl Zeiss, Thornwood, N.Y.) inverted microscope. No differences in contact mechanics of the samples were observed between the two instruments. The AFM probes in the substrate studies were silicon nitride cantilevers (PNP-TR-50, k=60 pN/nm, NanoAndMore, Lady's Island, S.C.) with a square pyramid tip incorporated at the free end. For each experiment, the actual spring constant of the cantilever was determined by monitoring the amplitude of the lever's thermal vibration at resonance and applying the equipartition theorem (Hutter, et al., (1993) Review of Scientific Instruments 64:3342-3342). Probe indentation measurements were obtained over the central region of the cell where the nucleus was present.
Compliance of the HTM cells and PA gels was quantified by fitting the force, generated by the indenting probe, vs. the depth of indentation with equation 1 (Hertz, H. (1882) J. Reine Angew. Mathematik 92:156-171; Love, A. E. H. (1939) Quarterly Journal of Mathematics 10:161-175; Harding, et al., (1945) Proceedings of the cambridge philosophical society 41:16-26).
Where α is the half-angle opening of the square pyramid tip (35°), ν is Poisson's ratio, E is Young's modulus and δ is the penetration depth. By using Eq. 1, we have assumed that the HTM cells and PA gels were perfectly elastic, isotropic, and infinitely thick and that the square pyramid indenter was a rigid cone. A Poisson ratio of 0.5 (incompressible) for both the cell and polyacrylamide gels was assigned, since both samples were well hydrated. This allows a solution for Young's modulus of the sample.
Application of Eq. 1 is not straightforward, as both the cells and gels were not perfectly elastic or isotropic, they were viscoelastic and anisotropic, and they were also not infinitely thick. However, in the limit of small indentations both the cells and gels were well described by Eq. 1. The method proposed by Mahaffey et al., (Phys Rev Lett (2000) 85:880-883) was applied to quantitatively define the indentation depth over which these viscoelastic materials behave as elastic bodies. This is accomplished by plotting experimental values of E vs. δ during tip indentation and noting the penetration depth over which E remains constant. […]

[2] = system: HTM cells; test: Confocal/fluorescence imaging of HTM cell morphology on latrunculin exposure and recovery; conditions: for cell morphology: 0.2 μM latrunculin
Method: as §1
Latrunculin B influences cytoskeleton of cells by associating with actin. […] The micrographs were taken with a confocal AFM. The live HTM cells were labeled with fluorescent wheat germ agglutinin and the latrunculin was added. […] Measurements of compliance were taken prior to the introduction of drug, and at the 30 minute time point. The cells had moduli of 2.0 kPa prior to addition of latrunculin, and 0.07 kPa at 30 minutes. The concentration of drug used was not in the range of 1-100 μM used in other published studies. It should be noted, however, that the higher ranges (100 μM) were topically applied to primate eyes (20 μl) in one bolus while our studies had the drug present during the entire one hour time period. The effects of the latrunculin were profound.
The morphology of HTM cells adhered to glass and the glaucomatous (pathomimetic)polyacrylamide gel (PPA, 92.2±10.4 kPa) substrates were predominantly elongated with pronounced asymmetry. On the homeomimetic polyacrylamide gel (HPA, 4.0±1.5 kPa), the cells were predominantly adhered in a radially symmetric fashion and were considerably rounder in appearance (See, FIGS. 6 and 10). When exposed to Lat-B, HTM cells on glass and PPA substrates responded in a similar fashion to other cell types previously studied (Spector, et al., (1983) Science 219:493-495, Wakatsuki, et al., (2001) Journal of Cell Science 114:1025-1036, Coue, et al., (1987) Febs Letters 213:316-318; Cha, et al., (2004) J Cell Sci 117:3353-3365). Lat-B disrupted the dynamic process of actin filament maintenance and the actin polymerization process rapidly shifted towards net depolymerization. […] These strands resembled retraction fibers observed during mitosis (Sanger, et al., (1984) Cell Tissue Res 237:409-417). Similar cable-like filaments have also been reported by Evanko, et. al., (J Histochem Cytochem (2009) 57:1041-1060).

[3] = system: myocilin; test: Western blot of myocilin protein in HTM 631 cells; conditions: HTM 631 cells on 400 nm pitch surfaces with dexamethasone
Method: Protein concentration is assessed using the Bradford protein assay. Samples of 10 μg are electrophoresed on a 10% polyacrylamide gel and the protein transferred to nitrocellulose membranes as previously described^141. Antibodies for the proteins being detected are commercially available or publicly described. A chemiluminescent detection method is used with peroxidase linked antibodies to mouse, chick or rabbit in conjunction with the LumiGLO chemiluminesent kit. The banding pattern obtained on the x-ray film is quantified using ImageQuant software with the actin band serving as a normalized reference for protein loading. Imaging can also be done using a CCD camera without the use of x-ray film.

Compound | modulus of the cells ([1]; 0.2 μM latrunculin, measured after 30 minutes, 2.0 kPa before addition) [kPa] | cell resistance to deformation compared to pre-exposure levels ([1]; at 30 minutes of Lat-B exposure (0.2 μM)) | HTM Cell Modulus on Substrates, Glass ([1]; 90 min recovery after 30 min 0.2 μM Lat-B and removal) [kPa] | HTM Cell Modulus on Substrates, Glass ([1]; 90 min recovery after 30 min 0.2 μM Lat-B and removal, listed as Lat-B) [kPa] | HTM Cell Modulus on Substrates, Glass ([1]; 270 min recovery after 30 min 0.2 μM Lat-B and removal) [kPa] | HTM Cell Modulus on Substrates, Glass ([1]; 270 min recovery after 30 min 0.2 μM Lat-B and removal, listed as Lat-B) [kPa] | HTM Cell Modulus on Substrates, Homeomimetic ([1]; 90 min recovery after Lat-B) [kPa] | HTM Cell Modulus on Substrates, Homeomimetic ([1]; 270 min recovery after Lat-B) [kPa] | percentage difference in cell elastic modulus, PPA to HPA ([1]; maximum, at 90 minutes of recovery from Lat-B) | HTM Cell Modulus on Substrates, Pathomimetic ([1]; 90 min recovery after Lat-B) [kPa] | HTM Cell Modulus on Substrates, Pathomimetic ([1]; 270 min recovery after Lat-B) [kPa] | cell morphology ([2]; 30 minutes, listed as Latrunculin) | cell morphology ([2]; 30 minutes, listed as latrunculin) | cell morphology ([2]; one hour) | time to return to pre-exposure morphology after rinsing Lat-B ([2]; glass and PPA substrates) | increase in myocilin protein expression [3] [fold]
C/C1=C/C(=O)O[C@@H]2C[C@@H](CC[C@H](C)/C=C\CC1)O[C@@](O)([C@@H]1CSC(=O)N1)C2 [Latrunculin B] | 0.07 | substantially decreased | 11.0 ± 2.3 | 11.0±2.3 | 2.3 ± 0.2 | 2.3±0.2 | 2.3 ± 0.2 | 1.7 ± 0.5 | approximately 54% | 4.0 ± 1.8 | 2.0 ± 0.4 | rounding of the cells | starting to round up | completely rounded | 60-90 minutes | 
C[C@@H]1C[C@H]2[C@@H]3CCC4=CC(=O)C=C[C@]4(C)[C@@]3(F)[C@@H](O)C[C@]2(C)[C@@]1(O)C(=O)CO [dexamethasone] |  |  |  |  |  |  |  |  |  |  |  |  |  |  |  | 19
